Format in all cases: functional, organism-based
In experiment [1] the test system is Alternaria solani. Description: Antifungal activity against Alternaria solani incubated as 50% WP formulation.
For experiment [2], the system named is Fulvia fulva. Description: Antifungal activity against Passalora fulva incubated as 50% WP formulation.
The subject of experiment [3] is Botrytis cinerea. The experiment in a line: Antifungal activity against Botryotinia fuckeliana incubated as 50% WP formulation.
Experiment [4] deals with Alternaria solani. The experiment in a line: Antifungal activity against Alternaria solani incubated as 10% EC formulation.
Experiment [5] has as its system Fulvia fulva. Description: Antifungal activity against Passalora fulva incubated as 10% EC formulation.
Experiment [6] concerns Botrytis cinerea. The experiment in a line: Antifungal activity against Botryotinia fuckeliana incubated as 10% EC formulation.

These results are taken from ChEMBL document CHEMBL3045470, “Effect of 2-allylphenol against Botrytis cinerea Pers., and its residue in tomato fruit” (Crop Prot, 2007).

Values after ≈ are worked out from the molar mass of the structure shown.

By EC50 is commonly meant the concentration that produces a half-maximal response. Higher therefore signals weaker potency. In the case of `CC(C)NC(=O)N1CC(=O)N(c2cc(Cl)cc(Cl)c2)C1=O` [IPRODIONE], the EC50 in the experiment with Alternaria solani [1] was determined as 56 µg/mL (≈ 169 µM); in the experiment with Fulvia fulva [2], 48.9 µg/mL (≈ 148 µM); in the experiment with Botrytis cinerea [3] it was 58.6 µg/mL (≈ 177 µM).
In the case of `C=CCc1ccccc1O` [2-ALLYLPHENOL], the values for the concentration for a half-maximal effect (EC50) with Alternaria solani [4], in the experiment on Fulvia fulva [5] and in the experiment with Botrytis cinerea [6] were 31.3 µg/mL (≈ 233 µM), 52.2 µg/mL (≈ 389 µM) and 21.7 µg/mL (≈ 162 µM), respectively.
